Assay results published in US9895363B2, “Methods for modulating function of proliferating cell nuclear antigen (PCNA) and treating cancer with PCNA-targeting compounds” (University of Cincinnati, priority 2010, dated 2018).
Like-named read-outs stand apart in the source and are kept apart here.

Key:
[1] = tested on: LNCaP prostate cancer cells; experiment: Growth inhibition by MTT staining, LNCaP; type: cell-based, Human; conditions: 96 h
Procedure: (§1) Growth inhibitory effects of PCNA-I1 and PCNA-I2 were assessed in human cancer cell lines, mouse cancer cell lines, immortalized mouse cell lines, and human primary cell lines. Specifically, growth inhibitory effects of PCNA-I1 and PCNA-I2 were assessed using MTT staining in the following cells lines: 1) human cancer cell lines including LNCaP (androgen receptor […]), 22Rv1, DU-145, LAPC-4, and PC-3 (androgen receptor […]) prostate cancer cells; MCF-7 and T47D breast cancer cells; A375 and MDA-MB435 melanoma cells; 2) mouse cancer cell lines including TRAMP-C2RE3 prostate cancer cells, B16 and K1735 melanoma cells, UV2237 fibrosarcoma cells, and CT-26 colon cancer cells; 3) immortalized mouse lung cell lines and mouse endothelial cell lines; and 4) primary human cell lines including umbilical endothelial cells (HUVEC, PromoCell, Heidelberg, Germany), primary bone marrow mesenchymal stem cells (HuMSC, PromoCell), primary human mammary epithelial cells (HuBrEC, Lonza, Walkersville, Md.), primary human prostate epithelial cells (HuPrEC, Lonza), and primary mouse spleen lymphocytes (isolated in this laboratory), and primary mouse bone marrow stromal cells (isolated in this laboratory). PCNA-I1 and PCNA-I2 were either provided by the University of Cincinnati Drug Discovery Center (UC-DDC, Cincinnati, Ohio) or were purchased from Chembridge Co (San Diego, Calif.), ChemDiv (San Diego, Calif.), and/or Sigma-Aldrich (St Louis, Mo.).
(§2) Growth inhibitory effects of the compounds were assessed by MTT staining as described previously by Dong et al. in In Vitro Model for Intrinsic Drug Resistance: Effects of Protein Kinase C Activators on the Chemosensitivity of Cultured Human Colon Cancer Cells; Mol. Pharmacol. 1991; 39: 563-9. Briefly, cells were cultured and treated in their respective media. Cells were plated into 96-well plates at 1000 to 5000 cells/well. After an overnight incubation, the cells were treated for four days with various concentrations (up to 10 μM) of PCNA-I1 or PCNA-I2. The live cells were stained with MTT and cells in exponential growth phase were harvested by a one to three minute treatment with a 0.25% trypsin-0.02% EDTA solution. Flasks were tapped to detach the cells, RPMI 1640-10% FBS was added, and the cell suspensions were gently agitated to produce single-cell suspensions. The cell suspensions were washed and resuspended in medium with supplements specified for different cells. Only suspensions of single cells with a viability exceeding 95% (ascertained by trypan blue exclusion) were used.
(§3) IC50 values were derived from growth inhibition curves. Data for tumor cells are a mean of five to seven experiments. Data for primary cells are a mean of three experiments. […] Inhibition of cell growth was calculated using the formula: growth inhibition (%)=(1−A570 of treated/A570 of control)×100. IC50 (the concentration that inhibited cell growth by 50%) values were also determined. For evaluation of lymphocyte growth in suspension, an Alamar blue assay was performed, wherein freshly prepared mouse spleen lymphocytes were stimulated for 72 H with 2 ug/mL concanavalin A (Sigma Chemicals, St. Louis, […].). During the last 24 H, 20 μl/well of Alamar blue (Invitrogen, Carlsbad, Calif.) was added. The fluorescence intensity was measured at 530/580 (excitation/emission) in the FLUOstar Omega microplate reader (BMG LABTECH, Cary, N.C.).
(§4) Growth inhibitory effects of PCNA-I3, PCNA-I4, PCNA-I6, PCNA-I7, PCNA-I8, PCNA-I9 and PCNA-I10 were assessed in human prostate cancer cell lines. Specifically, growth inhibitory effects of PCNA-I3, PCNA-I4, PCNA-I6, PCNA-I7, PCNA-I8, PCNA-I9 and PCNA-I10 were assessed using MTT staining in LNCaP and PC-3 cells. […]

[2] = tested on: PC-3 prostate cancer cells; experiment: Growth inhibition by MTT staining, PC-3; type: cell-based, Human; conditions: MTT
Procedure: as §1, §2, §3, §4

[3] = tested on: primary mouse spleen lymphocytes; experiment: Alamar blue assay of lymphocyte growth; type: cell-based; conditions: 2 μg/mL, 72 H; FIG. 2(A)
Procedure: as §3
The effects of PCNA-I1 on growth of tumor cells versus primary cells was also investigated. Specifically, the effects of PCNA-1I on the growth of primary cells was investigated using primary culture of mouse lymphocytes. An Alamar blue assay was performed with PC-3 cells as a positive control. Freshly prepared mouse spleen lymphocytes were stimulated for 72 H with 2 μg/mL of concanavalin A. During the last 24 H, 20 μL/well of alamar blue was added. The fluorescence intensity was measured at 530/580 (excitation/emission).

LNCaP cells [4] = experiment: MTT assay, PCNA-I1 and cisplatin alone or combined, LNCaP; type: cell-based, Human
Procedure: (§5) LNCaP or PC-3 cells were treated with a variety of concentrations of PCNA-I1 (0.1-10 μM) or cisplatin (0.1-10 μM) alone, or with a variety of concentrations of a combination of PCNA-I1 (0.1-10 μM) and cisplatin (0.1-10 μM) for four days. MTT assays were performed and IC50 values for PCNA-I1 and cisplatin were determined.

LNCaP cells [5] = experiment: DNA damage, apoptosis and cell cycle proteins by immunoblot, LNCaP; type: cell-based, Human
Procedure: Fluorescence-activated cell sorting (FACS) analysis was performed on both PC-3 cells and LNCaP cells using PCNA-I1. Specifically, cells were treated with 1 or 10 μM PCNA-I1 and sampled for the flow cytometry analysis at 24 H, 48 H, and 72 H. Expression of DNA damage and apoptosis-related proteins in PC-3 cells and LNCaP cells was also determined. Cisplatin, a well-known drug that induces DNA damage and apoptosis, was included in the experiment. LNCaP cells were treated for 6 H, 12 H, or 18 H with 10 μM PCNA-I1, 10 μM cisplatin, or both.
To further explore the differential effects of PCNA-I1 on LNCaP and PC-3 cells, the effects of PCNA-I1 and cisplatin on expression of cell cycle- and apoptosis-related proteins in the two cell lines were compared. LNCaP cells and PC-3 cells were treated with 1 μM PCNA-I1 and/or 5 μM cisplatin for 12 H, 18 H, or 24 H and cell lysates were sampled for immunoblotting.

PC-3 cells = experiment: MTT assay, PCNA-I1 and cisplatin alone or combined, PC-3; type: cell-based, Human
Procedure: as §5

[6] = tested on: DU145 prostate cancer cells; experiment: Growth inhibition by MTT staining, DU145; type: cell-based; conditions: DU-145, 96 h, Human tumor cells, treated four days
Procedure: as §1, with “PCNA-I1 and PCNA-I2 were either provided by the University of Cincinnati Drug Discovery Center (UC-DDC, Cincinnati, Ohio) or were purchased from Chembridge Co (San Diego, Calif.), ChemDiv (San Diego, Calif.), and/or Sigma-Aldrich (St Louis, Mo.).” left out
(§6) IC50 values were derived from growth inhibition curves. […] Inhibition of cell growth was calculated using the formula: growth inhibition (%)=(1−A570 of treated/A570 of control)×100. […]

[7] = tested on: LAPC-4 prostate cancer cells; experiment: Growth inhibition by MTT staining, LAPC-4; type: cell-based; conditions: LAPC4, 96 h, Human tumor cells, treated four days
Procedure: as §1, with “PCNA-I1 and PCNA-I2 were either provided by the University of Cincinnati Drug Discovery Center (UC-DDC, Cincinnati, Ohio) or were purchased from Chembridge Co (San Diego, Calif.), ChemDiv (San Diego, Calif.), and/or Sigma-Aldrich (St Louis, Mo.).” left out
as §6

PCNA = target: T1, PCNA (Homo sapiens, UniProt P12004); experiment: PCNA trimer formation assay, PC-3 cell lysate; type: biochemical; conditions: PC-3 lysate, 1 μM or 10 μM, 3 H, SDS-PAGE; FIG. 9(A)
T1 construct: endogenous PCNA was knocked down with transfection of PCNA-specific siRNA; endogenous in cells; host or cells: PC-3
T1 sequence (P12004 whole entry): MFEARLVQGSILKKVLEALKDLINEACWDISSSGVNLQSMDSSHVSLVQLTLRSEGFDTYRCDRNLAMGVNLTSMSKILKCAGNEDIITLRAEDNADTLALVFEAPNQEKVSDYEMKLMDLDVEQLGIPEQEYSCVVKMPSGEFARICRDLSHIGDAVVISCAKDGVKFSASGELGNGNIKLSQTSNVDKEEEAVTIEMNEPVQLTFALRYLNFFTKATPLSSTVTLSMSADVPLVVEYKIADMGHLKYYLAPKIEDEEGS
Procedure: The effect of PCNA-I1, PCNA-I2, PCNA-I3, PCNA-I4, PCNA-I6, PCNA-I7, PCNA-I8, PCNA-I9, and PCNA-I10 on PCNA trimer formation was investigated by SDS-PAGE and immunoblotting. Specifically, a trimer formation assay was performed on both PC-3 cell lysates and purified recombinant protein. The trimer formation assay was performed on purified recombinant protein to determine whether the effects of PCNA compounds on the stable trimer formation required the participation of other cellular proteins.
Purified His-PCNA (0.1 μg/reaction) and PC-3 cell lysates (50 μg/reaction) were incubated for 3 H at room temperature in a reaction buffer (40 mM Tris-HCl, pH 7.5, 0.2 mg/mL BSA, 10 mM MgCl2, and 10% glycerol) in the absence or presence of DMSO (0.1% vehicle control) or PCNA-I1, PCNA-I2, PCNA-I3, PCNA-I4, PCNA-I6, PCNA-I7, PCNA-I8, PCNA-I9, or PCNA-I10 (1 μM or 10 μM). The reaction was stopped by addition of the SDS-PAGE sample buffer without a reducing agent. The samples were resolved in SDS-PAGE without boiling and analyzed by immunoblotting using PCNA antibody.

GFP-PCNA = GFP-PCNA chromatin association, fluorescence microscopy; type: cell-based, Human; conditions: PC-3 transfected with pGFP-PCNA; 4 H, 0.5 μM PCNA-I1 or 2 μM PCNA-I2; FIG. 11
Procedure: Additionally, PC-3 cells were transfected for 24 H with pGFP-PCNA. The cells were then treated for 4 H with 0.5 μM of PCNA-I1 or 2 μM of PCNA-I2. The intact GFP-PCNA expressing cells were observed under a fluorescent microscope and recorded. After treatment with a buffer with 0.5% NP-40 buffer B, the cells were examined and recorded.

[8] = tested on: MCF-7 breast cancer cells; experiment: Growth inhibition by MTT staining, MCF-7; type: cell-based; conditions: MCF7, 96 h, Human, tumor cells, treated four days
Procedure: as §1, with “PCNA-I1 and PCNA-I2 were either provided by the University of Cincinnati Drug Discovery Center (UC-DDC, Cincinnati, Ohio) or were purchased from Chembridge Co (San Diego, Calif.), ChemDiv (San Diego, Calif.), and/or Sigma-Aldrich (St Louis, Mo.).” left out
as §6

A375 melanoma cells = experiment: Growth inhibition by MTT staining, A375; type: cell-based; conditions: A-375, 96 h, Human, treated four days
Procedure: as §1, with “PCNA-I1 and PCNA-I2 were either provided by the University of Cincinnati Drug Discovery Center (UC-DDC, Cincinnati, Ohio) or were purchased from Chembridge Co (San Diego, Calif.), ChemDiv (San Diego, Calif.), and/or Sigma-Aldrich (St Louis, Mo.).” left out
as §6

Tumor Cells = experiment: Growth inhibition, mean over tumor cell lines; type: cell-based; conditions: most cell lines examined
Procedure: as §1, with “PCNA-I1 and PCNA-I2 were either provided by the University of Cincinnati Drug Discovery Center (UC-DDC, Cincinnati, Ohio) or were purchased from Chembridge Co (San Diego, Calif.), ChemDiv (San Diego, Calif.), and/or Sigma-Aldrich (St Louis, Mo.).” left out
as §6

[9] = Homo sapiens, Table III, four days, mean of two experiments, read-out: IC50 Values of PCNA Inhibitors, LNCaP Cells
[10] = Homo sapiens, PC-3, 96 h, Table III, four days, mean of two experiments, read-out: IC50 Values of PCNA Inhibitors, PC-3 Cells

O=C(N/N=C/c1ccc2ccccc2c1O)c1sc2ccccc2c1O [PCNA-I7]
IC50 [1, 9]: 2200 nM | IC50 [2, 10]: 3600 nM

concanavalin A [reference compound]
Stimulation of lymphocyte growth [3]: about 3.5 fold

C/C(=N\NC(=O)c1cccc(F)c1)c1ccc2ccccc2c1O [PCNA-I8]
IC50 [1, 9]: 680 nM | IC50 [2, 10]: 1000 nM

C/C(=N\NC(=O)c1ccccc1O)c1ccc2ccccc2c1O [PCNA-I9]
IC50 [1, 9]: 710 nM | IC50 [2, 10]: 2200 nM

N.N.[Cl][Pt][Cl] [cisplatin, reference compound]
IC50 (LNCaP cells [4]; MTT, four days, single agent, read-out: IC50 doses for cell growth inhibition, LNCaP, agent alone): 650 nM | IC50 (LNCaP cells [4]; combined with 0.067 μM PCNA-I1, read-out: Cisplatin concentration giving 50% inhibition in combination, LNCaP): 300 nM | Expression of retinoblastoma (Rb) and cyclin D1 (LNCaP cells [5]; LNCaP and PC-3, 1 μM PCNA-I1 and/or 5 μM cisplatin, 12-24 H): moderately downregulated expression of cell cycle-regulating proteins | Phosphorylation of p53, single agent (LNCaP cells [5]; LNCaP, 10 μM): induced | Expression of p21 protein (LNCaP cells [5]; LNCaP, 10 μM PCNA-I1 and/or 10 μM cisplatin): enhanced expression of p21 protein at 6 H and 12 H | PARP cleavage, single agent (LNCaP cells [5]; LNCaP, 10 μM alone): induced PARP cleavage | DNA double strand break (γH2AX induction), single agent (LNCaP cells [5]; LNCaP, 10 μM alone, 6-18 H, FIG. 17(A)): induced moderate double strand break (DSB) of DNA | IC50 (PC-3 cells; MTT, four days, single agent, read-out: IC50 doses for cell growth inhibition, PC-3, agent alone): 450 nM | IC50 (PC-3 cells; combined with 0.08 μM PCNA-I1, read-out: Cisplatin concentration giving 50% inhibition in combination, PC-3): 300 nM

O=C(N/N=C/c1ccc2ccccc2c1O)c1cccc(Cl)c1 [PCNA-I3]
IC50 [1, 9]: 260 nM | IC50 [2, 10]: 440 nM

O=C(NNC(=O)c1c(O)c2ccccc2[nH]c1=O)c1ccccc1[N+](=O)[O-] [PCNA-I10]
IC50 [1, 9]: 2200 nM | IC50 [2, 10]: > 10000 nM

Cc1ccc2[nH]c(=O)c(/C=N/NC(=O)c3ccccc3)c(O)c2c1 [PCNA-I6]
IC50 [1, 9]: > 10000 nM | IC50 [2, 10]: > 10000 nM

O=C(NNS(=O)(=O)c1ccc(Br)cc1)c1c(O)c2ccccc2[nH]c1=O [PCNA-I4]
IC50 [1, 9]: 680 nM | IC50 [2, 10]: 3000 nM

O=C(N/N=C/c1c(O)ccc2ccccc12)c1ccn[nH]1 [PCNA-I2]
IC50 [6]: 1190 nM | IC50 [7]: 1790 nM | Portion of PCNA in the trimer form (PCNA): significantly elevated | IC50 ([1]; Table II, Human tumor cells, treated four days, mean of five to seven experiments, read-out: IC50 Values, LNCaP): 560 nM | Level of chromatin-associated GFP-PCNA (GFP-PCNA): reduced the level of chromatin-associated GFP-PCNA | Total intensity of GFP-PCNA (GFP-PCNA): did not significantly alter the total intensity of GFP-PCNA | IC50 [8]: 1010 nM | IC50 (A375 melanoma cells): 3750 nM | Potency relative to PCNA-I1 (Tumor Cells): about three to five times less potent than PCNA-I1 | IC50 ([2]; 96 h, Table II, Human tumor cells, treated four days, mean of five to seven experiments, read-out: IC50 Values, PC-3): 970 nM
